Counter-ions that a name gives are not always drawn.

The subject of this test is HUVECs. The test is described as follows: XTT cell viability assay (Example 106). The test is classed as cell-based, human. The settings on record: Homo sapiens, HUVEC, 72 hours, read-out: Inhibition of HUVEC cell prolifiration (IC50). The method, then: Some compounds described by the general structure (B) were tested for cell viability. XTT assay: HUVECs were seeded at 10,000 cells/well of a tissue culture treated 96-well plate treated with collagen type I and grown overnight in the complete EGM-2 media as described above. The following morning, the inhibitors were serial diluted with DMSO and added to the cells with a final DMSO concentration of 1%. After 72 hours cell viability was measured with an XTT assay (Sigma, St. Louis, Mo.). The cells were also photographed to compare morphological differences to the XTT trends observed. Determination of the IC50 values was performed with quantitative software (Prism software package, GraphPad Software, San Diego Calif.).
For orientation: Tetrazolium dyes change colour on reduction, which living cells bring about.
As for `CNC(=O)c1cc(Oc2cccc(-c3nnc(Nc4ccc(Cl)c(C(F)(F)F)c4)[nH]3)c2)ccn1` [4-{3-[5-(4-chloro-3-trifluoromethyl-phenylamino)-4H-[1,2,4]triazol-3-yl]-phenoxy}-pyridine-2-carboxylic acid methylamide trifluoroacetic acid salt], the IC50 is > 20 µM. For the compound `Nc1ccc(Oc2ccc(-c3nnc(Nc4ccc(OC(F)(F)F)cc4)[nH]3)cc2)nn1` [6-{4-[5-(4-trifluoromethoxy-phenylamino)-4H-[1,2,4]triazol-3-yl]-phenoxy}-pyridazin-3-ylamine trifluoroacetic acid salt], the IC50 was > 20 µM. Take `CNC(=O)c1cc(Oc2ccc(Nc3nnc(-c4ccc(Cl)c(C(F)(F)F)c4)[nH]3)cc2)ccn1` [4-[4-({5-[4-chloro-3-(trifluoromethyl)phenyl]-4H-1,2,4-triazol-3-yl}amino)phenoxy]-N-methylpyridine-2-carboxamide trifluoroacetate salt]: the IC50 is > 40 µM.

In the case of `FC(F)(F)c1cc(-c2nnc(Nc3ccc(Oc4ccncc4)cc3)[nH]2)ccc1Cl` [5-[4-chloro-3-(trifluoromethyl)phenyl]-N-[4-(pyridine-4-yloxy)phenyl]-4H-1,2,4-triazol-3-amine trifluoroacetate salt], the IC50 was > 40 µM.

For the compound `Nc1cc(Oc2ccc(-c3nnc(Nc4ccc(OC(F)(F)F)cc4)[nH]3)cc2)nc(N)n1` [6-{4-[5-(4-trifluoromethoxy-phenylamino)-4H-[1,2,4]triazol-3-yl]-phenoxy}-pyrimidine-2,4-diamine trifluoroacetic acid salt], the IC50 came to 6 µM. On to `Nc1ccc(Oc2ccc(-c3nnc(Nc4ccc(Cl)c(C(F)(F)F)c4)[nH]3)cc2)nn1` [6-{4-[5-(4-chloro-3-trifluoromethyl-phenylamino)-4H-[1,2,4]triazol-3-yl]-phenoxy}-pyridazin-3-ylamine trifluoroacetic acid salt], for which the IC50 worked out at 1.79 µM.

As for `CNC(=O)c1cc(Oc2ccc(-c3nnc(Nc4ccc(OC(F)(F)F)cc4)[nH]3)cc2)ccn1` [4-{4-[5-(4-trifluoromethoxy-phenylamino)-4H-[1,2,4]triazol-3-yl]-phenoxy}-pyridine-2-carboxylic acid methylamide trifluoroacetic acid salt], the IC50 was > 40 µM. On to `FC(F)(F)Oc1ccc(Nc2nnc(-c3ccc(Oc4ccncc4)cc3)[nH]2)cc1` [{5-[4-(pyridin-4-yloxy)-phenyl]-4H-[1,2,4]triazol-3-yl]-(4-trifluoromethoxy-phenyl)-amine trifluoroacetic acid salt], for which the IC50 was > 40 µM.

For the compound `FC(F)(F)c1ccc(Cl)c(Nc2nnc(-c3ccc(Oc4cncnc4)cc3)o2)c1` [5-[4-(Pyrimidin-5-yloxy)phenyl]-N-[2-chloro-5-(trifluoromethyl)-phenyl]-1,3,4-oxadiazol-2-amine], the IC50 was ~20 µM. Turning to `CNC(=O)c1cc(Oc2ccc(Nc3nnc(-c4ccc(OC(F)(F)F)cc4)[nH]3)cc2)ccn1` [4-{4-[5-(4-trifluoromethoxy-phenyl)-4H-[1,2,4]triazol-3-ylamino]-phenoxy}-pyridine-2-carboxylic acid methylamide trifluoroacetic acid salt], the IC50 turned out to be 2.2 µM. As for `Nc1cc(Oc2ccc(-c3nnc(Nc4cc(C(F)(F)F)ccc4Cl)o3)cc2)nc(N)n1` [6-(4-{5-[(2-chloro-5-trifluoromethyl-phenyl)amino]-1,3,4-oxadiazol-2-yl}phenoxy)pyrimidine-2,4-diamine], the IC50 was ~20 µM.
